Patent publication US12077503B2, “Substituted cyclic amides and their use as herbicides” (FMC CORPORATION, priority 2015, dated 2024)

Columns and labels:
Assay type in all cases: in vivo
[1] = test system: barnyardgrass (Echinochloa crus-galli); assay: Test A preemergence; conditions: for Barnyardgrass plant response rating (0 to 100 scale, 0 is no effect, 100 is complete control): visual injury approx. 10 d
Excerpt: (§1) Seeds of plant species selected from barnyardgrass (Echinochloa crus-galli), Kochia (Kochia scoparia), ragweed (common ragweed, Ambrosia elatior), ryegrass, Italian (Italian ryegrass, Lolium multiflorum), crabgrass, large (Digitaria sanguinalis), giant foxtail (Setaria faberii), green foxtail (Setaria viridis), morningglory (Ipomoea spp.), pigweed (Amaranthus retroflexus), velvetleaf (Abutilon theophrasti), wheat (Triticum aestivum), and corn (Zea mays) were planted into a blend of loam soil and sand and treated preemergence with a directed soil spray using test chemicals formulated in anon-phytotoxic solvent mixture which included a surfactant.
(§2) At the same time, plants selected from these crop and weed species and also blackgrass (Alopecurus myosuroides), and Galium (catchweed bedstraw, Galium aparine) were planted in pots containing the same blend of loam soil and sand and treated with postemergence applications of test chemicals formulated in the same manner. Plants ranged in height from 2 to 10 cm and were in the one- to two-leaf stage for the postemergence treatment. Treated plants and untreated controls were maintained in a greenhouse for approximately 10 d, after which time all treated plants were compared to untreated controls and visually evaluated for injury. Plant response ratings, summarized in Table A, are based on a 0 to 100 scale where 0 is no effect and 100 is complete control. A dash (-) response means no test result.

[2] = test system: pigweed (Amaranthus retroflexus); assay: Test A preemergence
Excerpt: as §1, §2

[3] = test system: ryegrass, Italian (Italian ryegrass, Lolium multiflorum); assay: Test A preemergence; conditions: for Ryegrass, Italian plant response rating (0 to 100 scale, 0 is no effect, 100 is complete control): visual injury approx. 10 d
Excerpt: as §1, §2

[4] = test system: ragweed (common ragweed, Ambrosia elatior); assay: Test A preemergence; conditions: for Ragweed plant response rating (0 to 100 scale, 0 is no effect, 100 is complete control): visual injury approx. 10 d
Excerpt: as §1, §2

Kochia (Kochia scoparia) [5] = assay: Test A preemergence; conditions: for Kochia plant response rating (0 to 100 scale, 0 is no effect, 100 is complete control): visual injury approx. 10 d
Excerpt: as §1, §2

[6] = test system: giant foxtail (Setaria faberii); assay: Test A preemergence; conditions: for Foxtail, Giant plant response rating (0 to 100 scale, 0 is no effect, 100 is complete control): visual injury approx. 10 d
Excerpt: as §1, §2

[7] = test system: Galium (catchweed bedstraw, Galium aparine); assay: Test A postemergence
Excerpt: as §1, §2

[8] = test system: barnyardgrass (Echinochloa crus-galli); assay: Test A postemergence
Excerpt: as §1, §2

[9] = test system: wheat (Triticum aestivum); assay: Test A postemergence
Excerpt: as §1, §2

[10] = test system: pigweed (Amaranthus retroflexus); assay: Test A postemergence
Excerpt: as §1, §2

corn (Zea mays) = assay: Test A postemergence
Excerpt: as §1, §2

[11] = test system: blackgrass (Alopecurus myosuroides); assay: Test A postemergence
Excerpt: as §1, §2

[12] = test system: ryegrass, Italian (Italian ryegrass, Lolium multiflorum); assay: Test A postemergence
Excerpt: as §1, §2

[13] = test system: ragweed (common ragweed, Ambrosia elatior); assay: Test A postemergence
Excerpt: as §1, §2

Kochia (Kochia scoparia) [14] = assay: Test A postemergence
Excerpt: as §1, §2

[15] = test system: giant foxtail (Setaria faberii); assay: Test A postemergence
Excerpt: as §1, §2

[16] = test system: barnyardgrass (Echinochloa crus-galli); assay: Test B flooded paddy test; conditions: Flood, 250 g ai/ha; 0 to 100 scale where 0 is no effect and 100 is complete control; 13 to 15 d
Method: (§3) Plant species in the flooded paddy test selected from rice (Oryra sativa), sedge, umbrella (small-flower umbrella sedge, Cyperus difformis), ducksalad (Heteranthera limosa), and barnyardgrass (Echinochloa crus-galli) were grown to the 2-leaf stage for testing. At time of treatment, test pots were flooded to 3 cm above the soil surface, treated by application of test compounds directly to the paddy water, and then maintained at that water depth for the duration of the test. Treated plants and controls were maintained in a greenhouse for 13 to 15 d, after which time all species were compared to controls and visually evaluated. Plant response ratings, summarized in Table B, are based on a scale of 0 to 100 where 0 is no effect and 100 is complete control. A dash (-) response means no test result.

[17] = test system: sedge, umbrella (small-flower umbrella sedge, Cyperus difformis); assay: Test B flooded paddy test; conditions: Flood, 250 g ai/ha; for Plant response rating, Sedge, Umbrella: 0 to 100 scale where 0 is no effect and 100 is complete control, 13 to 15 d
Method: as §3

[18] = test system: ducksalad (Heteranthera limosa); assay: Test B flooded paddy test; conditions: Flood, 250 g ai/ha; 0 to 100 scale where 0 is no effect and 100 is complete control; 13 to 15 d
Method: as §3

rice (Oryra sativa) = assay: Test B flooded paddy test; conditions: Flood, 250 g ai/ha; 0 to 100 scale where 0 is no effect and 100 is complete control; 13 to 15 d
Method: as §3

[19] = 125 g ai/ha, Preemergence, visual injury after approximately 10 d, 0 to 100 scale where 0 is no effect and 100 is complete control
[20] = 500 g ai/ha, preemergence, 0 to 100 scale, 0 = no effect, 100 = complete control
[21] = 125 g ai/ha, preemergence, visual rating after approx. 10 d, 0 to 100 scale where 0 is no effect and 100 is complete control
[22] = 125 g ai/ha, postemergence, visual injury after approximately 10 d, 0 to 100 scale (0 no effect, 100 complete control)
[23] = 500 g ai/ha, postemergence, visual injury, 0 to 100 scale (0 no effect, 100 complete control), approx. 10 d
[24] = 125 g ai/ha, postemergence, visual rating after approx. 10 d, 0 to 100 scale (0 no effect, 100 complete control)
[25] = Postemergence, 500 g ai/ha, 0 to 100 scale where 0 is no effect and 100 is complete control
[26] = 125 g ai/ha, postemergence, visual injury rating on 0 to 100 scale (0 no effect, 100 complete control), approx. 10 d

## O=C1NCC(c2cccc(Br)c2)C1C(=O)Nc1ccc(F)c(F)c1F (racemic) [Compound 689]
[1]; [19]
  Plant response rating, Barnyardgrass: 90
[1]; [20]
  Plant response rating, Barnyardgrass: 90
[2]; [21]
  Plant response rating, Pigweed: 20
[2]; [20]
  Plant response rating, Pigweed: 40
[3]; [21]
  Plant response rating, Ryegrass, Italian: 0
[3]; [20]
  Plant response rating, Ryegrass, Italian: 20
[4]; [21]
  Plant response rating, Ragweed: 0
[4]; [20]
  Plant response rating, Ragweed: 30
Kochia (Kochia scoparia) [5]; [19]
  Plant response rating, Kochia: 20
Kochia (Kochia scoparia) [5]; [20]
  Plant response rating, Kochia: 60
[6]; [19]
  Plant response rating, Foxtail, Giant: 90
[6]; [20]
  Plant response rating, Foxtail, Giant: 90
[7]; [22]
  Plant response rating, Galium: 50
[7]; [23]
  Plant response rating, Galium: 50
[8]; [24]
  Plant response rating, Barnyardgrass: 90
[8]; [23]
  Plant response rating, Barnyardgrass: 90
[9]; [22]
  Plant response rating, Wheat: 20
[9]; [23]
  Plant response rating, Wheat: 60
[10]; [22]
  Plant response rating, Pigweed: 30
[10]; [23]
  Plant response rating, Pigweed: 60
Corn (Zea mays); [22]
  Plant response rating, Corn: 60
Corn (Zea mays); [23]
  Plant response rating, Corn: 80
[11]; [24]
  Plant response rating, Blackgrass: 50
[11]; [23]
  Plant response rating, Blackgrass: 60
[12]; [22]
  Plant response rating, Ryegrass, Italian: 30
[12]; [23]
  Plant response rating, Ryegrass, Italian: 60
[13]; [22]
  Plant response rating, Ragweed: 0
[13]; [23]
  Plant response rating, Ragweed: 50
Kochia (Kochia scoparia) [14]; [22]
  Plant response rating, Kochia: 30
Kochia (Kochia scoparia) [14]; [23]
  Plant response rating, Kochia: 60
[15]; [22]
  Plant response rating, Foxtail, Giant: 80
[15]; [23]
  Plant response rating, Foxtail, Giant: 90
[16]
  Plant response rating, Barnyardgrass: 40
[17]; scale of 0 to 100 where 0 is no effect and 100 is complete control
  Sedge, Umbrella plant response rating: 0
[18]
  Plant response rating, Ducksalad: 98
Rice (Oryra sativa)
  Plant response rating, Rice: 0

## O=C1NCC(c2cc(C(F)(F)F)cc(C(F)(F)F)c2)C1C(=O)Nc1ccccc1F (centres unmarked) [Compound 587]
[1]; [19]
  Plant response rating, Barnyardgrass: 90
[1]; Preemergence, 500 g ai/ha
  Barnyardgrass plant response rating (0 to 100 scale, 0 is no effect, 100 is complete control): 90
[2]; [19]
  Plant response rating, Pigweed: 0
[3]; [19]
  Plant response rating, Ryegrass, Italian: 20
[3]; Preemergence, 500 g ai/ha
  Ryegrass, Italian plant response rating (0 to 100 scale, 0 is no effect, 100 is complete control): 60
[4]; [19]
  Plant response rating, Ragweed: 0
[4]; Preemergence, 500 g ai/ha
  Ragweed plant response rating (0 to 100 scale, 0 is no effect, 100 is complete control): 0
Kochia (Kochia scoparia) [5]; [19]
  Plant response rating, Kochia: 0
Kochia (Kochia scoparia) [5]; Preemergence, 500 g ai/ha
  Kochia plant response rating (0 to 100 scale, 0 is no effect, 100 is complete control): 0
[6]; [19]
  Plant response rating, Foxtail, Giant: 90
[6]; Preemergence, 500 g ai/ha
  Foxtail, Giant plant response rating (0 to 100 scale, 0 is no effect, 100 is complete control): 90
[7]; [24]
  Plant response rating, Galium: 0
[7]; [25]
  Plant response rating, Galium: 0
[8]; [24]
  Plant response rating, Barnyardgrass: 80
[8]; [25]
  Plant response rating, Barnyardgrass: 90
[9]; [24]
  Plant response rating, Wheat: 40
[9]; [25]
  Plant response rating, Wheat: 60
[10]; [24]
  Plant response rating, Pigweed: 0
[10]; [25]
  Plant response rating, Pigweed: 0
Corn (Zea mays); [24]
  Plant response rating, Corn: 40
Corn (Zea mays); [25]
  Plant response rating, Corn: 70
[11]; [24]
  Plant response rating, Blackgrass: 20
[11]; [25]
  Plant response rating, Blackgrass: 60
[12]; [24]
  Plant response rating, Ryegrass, Italian: 0
[12]; [25]
  Plant response rating, Ryegrass, Italian: 30
[13]; [24]
  Plant response rating, Ragweed: 0
[13]; [25]
  Plant response rating, Ragweed: 0
Kochia (Kochia scoparia) [14]; [24]
  Plant response rating, Kochia: 0
Kochia (Kochia scoparia) [14]; [25]
  Plant response rating, Kochia: 20
[15]; [24]
  Plant response rating, Foxtail, Giant: 80
[15]; [25]
  Plant response rating, Foxtail, Giant: 90
[16]
  Plant response rating, Barnyardgrass: 55
[17]
  Plant response rating, Sedge, Umbrella: 0
[18]
  Plant response rating, Ducksalad: 75
Rice (Oryra sativa)
  Plant response rating, Rice: 20

## O=C1NCC(c2cc(F)cc(Cl)c2)C1C(=O)Nc1ccccc1F (centres unmarked) [Compound 491]
[1]; [19]
  Plant response rating, Barnyardgrass: 90
[1]; Preemergence, 500 g ai/ha
  Barnyardgrass plant response rating (0 to 100 scale, 0 is no effect, 100 is complete control): 90
[2]; [19]
  Plant response rating, Pigweed: 0
[2]; Preemergence, 500 g ai/ha, visual injury approx. 10 d
  Pigweed plant response rating (0 to 100 scale, 0 is no effect, 100 is complete control): 0
[3]; [19]
  Plant response rating, Ryegrass, Italian: 20
[3]; Preemergence, 500 g ai/ha
  Ryegrass, Italian plant response rating (0 to 100 scale, 0 is no effect, 100 is complete control): 30
[4]; [19]
  Plant response rating, Ragweed: 0
[4]; Preemergence, 500 g ai/ha
  Ragweed plant response rating (0 to 100 scale, 0 is no effect, 100 is complete control): 0
Kochia (Kochia scoparia) [5]; [19]
  Plant response rating, Kochia: 0
Kochia (Kochia scoparia) [5]; Preemergence, 500 g ai/ha
  Kochia plant response rating (0 to 100 scale, 0 is no effect, 100 is complete control): 20
[6]; [19]
  Plant response rating, Foxtail, Giant: 90
[6]; Preemergence, 500 g ai/ha
  Foxtail, Giant plant response rating (0 to 100 scale, 0 is no effect, 100 is complete control): 90
[7]; [26]
  Galium plant response rating: 0
[7]; [25]
  Plant response rating, Galium: 30
[8]; [26]
  Barnyardgrass plant response rating: 90
[8]; [25]
  Plant response rating, Barnyardgrass: 80
[9]; [26]
  Wheat plant response rating: 30
[9]; [25]
  Plant response rating, Wheat: 60
[10]; [26]
  Pigweed plant response rating: 0
[10]; [25]
  Plant response rating, Pigweed: 20
Corn (Zea mays); [26]
  Corn plant response rating: 60
Corn (Zea mays); [25]
  Plant response rating, Corn: 90
[11]; [26]
  Blackgrass plant response rating: 20
[11]; [25]
  Plant response rating, Blackgrass: 50
[12]; [26]
  Ryegrass, Italian plant response rating: 0
[12]; [25]
  Plant response rating, Ryegrass, Italian: 30
[13]; [26]
  Ragweed plant response rating: 0
[13]; [25]
  Plant response rating, Ragweed: 20
Kochia (Kochia scoparia) [14]; [26]
  Kochia plant response rating: 0
Kochia (Kochia scoparia) [14]; [25]
  Plant response rating, Kochia: 20
[15]; [26]
  Foxtail, Giant plant response rating: 80
[15]; [25]
  Plant response rating, Foxtail, Giant: 80
[16]
  Plant response rating, Barnyardgrass: 0
[17]
  Plant response rating, Sedge, Umbrella: 0
[18]
  Plant response rating, Ducksalad: 40
Rice (Oryra sativa)
  Plant response rating, Rice: 0
